From patent US20110250184A1, “METHODS FOR DETERMINING EFFICACY OF A THERAPEUTIC REGIMEN AGAINST DELETERIOUS EFFECTS OF CYTOTOXIC AGENTS IN HUMAN” (priority 2008, published 2011)
Entries after “also recorded” stand apart in the source; their conditions may differ.

Key:
[1] = tested on: HFL-1 (normal diploid lung fibroblasts) cells; assay: Clonogenic assay, radioprotection of HFL-1 cells against ionizing radiation; assay type: cell-based, human
Source text: FIG. 1. Protection of HFL-1 cells against Ionizing Radiation (IR) by ON 01210.Na. Following drug treatment and radiation exposure, cells were re-plated and the number of colonies from each plate was enumerated three weeks later. A. Relation of concentration of ON 01210.Na to number of surviving colonies. B. Stained clonogenic assay plates.
A clonogenic assay was used to measure radioprotection of ON 01210.Na on cultured human cells. Treatment of HFL-1 (normal diploid lung fibroblasts) cells with 2-20 μM of ON 01210.Na for 24 hours prior to cytotoxic levels of Ionizing Radiation (IR) (10 Gy) provided 3.3-4.7 fold protection in a dose-dependent manner (see FIG. 1A).HFL-1 cells, were treated with ON 01210.Na at final concentrations ranging from 2.0 to 20.0 μM. In a second experiment, cells were also treated with the drug for 24 h, but the drug was applied 4 h after irradiation.
Following drug treatment and radiation exposure, cells were re-plated and the number of colonies from each plate was enumerated three weeks later. A. Relation of concentration of ON 01210.Na to number of surviving colonies. B. Stained clonogenic assay plates.

human bone marrow cells = assay: In vitro radiation protection of human bone marrow cells (methocult CFU); assay type: cell-based
Protocol: FIG. 3. In vitro radiation protection of human bone marrow cells. Human bone marrow cells were treated with increasing concentrations of ON 01210.Na for 3 hours, and then irradiated with increasing doses of ionizing radiation. The cells were plated into methocult and the total number of CFUs was determined 14 days later.
Radiation protection assays were then performed (FIG. 3). Cells were treated with ON 01210.Na for 3 hours, irradiated, and plated in methocult. The total number of colony forming units was determined 14 days later. […] This compared very favorably when analyzed against protection studies using amifostine as a positive control.
Human bone marrow cells were treated with increasing concentrations of ON 01210.Na for 3 hours, and then irradiated with increasing doses of ionizing radiation. The cells were plated into methocult and the total number of CFUs was determined 14 days later.
When we plotted the survival curve at the optimal concentration of ON 01210.Na (FIG. 3C) we were able to calculate a dose reduction factor (DRF) of 1.6. We also tested the radiation protection activity of amifostine. Amifostine concentrations were selected that closely mimicked the therapeutic plasma concentrations. […] The calculated DRF value of 1.5 was determined from these experiments.

white blood cells = assay: White blood cell counts of irradiated mice; assay type: in vivo, C3H/HEJ mice
Protocol: FIG. 4. ON 01210.Na protects the bone marrow of irradiated mice. A. Mice were injected with 500 mg/kg of ON 01210.Na formulated in 1% Polysorbate 80/K-phosphate buffer or vehicle alone by sc injections minus 24 hrs and minus 15 minutes before 5.5 Gy of whole body ionizing radiation treatment. Whole blood was collected on the indicted days and WBC counts were performed following RBC lysis. The data is plotted as the average of three mice per group +/−SEM (N:3×3=9 plates). B. Pictures of representative plates. […] C. White blood cell counts. Whole blood was collected on the indicted days and WBC counts were performed following RBC lysis. The data is plotted as the average of 3 mice per group±SEM (N=3).
A. Mice were injected with 500 mg/kg of ON 01210.Na formulated in 1% Polysorbate 80/K-phosphate buffer or vehicle alone by sc injections minus 24 hrs and minus 15 minutes before 5.5 Gy of whole body ionizing radiation treatment. Whole blood was collected on the indicted days and WBC counts were performed following RBC lysis. The data is plotted as the average of three mice per group+/−SEM (N:3×3=9 plates). […]
In addition to examining the ability of ON 01210.Na to protect bone marrow cells, the protection of peripheral white blood cells was also examined. Whole blood was collected and the total number of white blood cells was determined at various times after radiation exposure.

[2] = tested on: mice exposed to lethal doses of whole body ionizing radiation; assay: In vivo survival studies in mice after lethal whole body radiation (30-day survival model)
Protocol: Since survival of animals after radiation exposure depends largely on the protection of the hematopoietic system, the effect of ON 01210.Na treatment on hematopoietic cell survival was investigated using various schedules before radiation exposure. The radioprotection of hematopoietic cells by ON 01210.Na was studied in an in vivo assay using a sub lethal dose of radiation. C3H/HEJ mice were treated with ON 01210.Na following various schedules in order to determine the optimal dose and schedule of ON 01210.Na for maximum protection of the hematopoietic system in mice.
In vivo survival studies in mice were designed to explore the effects of dose and schedule on survival, based on the well-established 30-day survival model, establish a dose reduction factor (DRF) for ON 01210.Na, compare two different formulations (suspension vs. solution) of ON 01210.Na; and show protection and recovery benefits of ON 01210.Na to the hematopoietic system and gastrointestinal tract of treated mice.
Two dose reduction factor (DRF) studies determined that the DRF for ON 01210.Na was 1.14 to 1.16.

human skin fibroblasts = assay: In vitro clonogenic survival assay, skin fibroblasts; assay type: cell-based
[3] = Free radical scavenger / antioxidant activity
cells = assay type: cell-based
[4] = tested on: 67 radioligand receptor binding assays; assay: Panel of 67 radioligand receptor binding assays; conditions: in vitro primary screening
Protocol: (§1) Additional biochemical studies were performed to screen for potential secondary or non-specific activities. ON 01210.Na was subjected to in vitro primary screening across a broad panel of 67 radioligand receptor binding assays and five cytochrome P450 enzymes: 1A2, 2C9, 2C19, 3A4, and 2D6. […] Only one cytochrome assay, CYP450 2C9, in which the activity was […] 98%, yielded a response that was considered significant. Thus, as a preliminary screen for safety and selectivity profiling, no targets were identified.

CYP450 2C9 = CYP450 2C9 (Homo sapiens, UniProt P11712); assay type: in vitro ADME
Sequence of CYP450 2C9 (P11712 whole entry): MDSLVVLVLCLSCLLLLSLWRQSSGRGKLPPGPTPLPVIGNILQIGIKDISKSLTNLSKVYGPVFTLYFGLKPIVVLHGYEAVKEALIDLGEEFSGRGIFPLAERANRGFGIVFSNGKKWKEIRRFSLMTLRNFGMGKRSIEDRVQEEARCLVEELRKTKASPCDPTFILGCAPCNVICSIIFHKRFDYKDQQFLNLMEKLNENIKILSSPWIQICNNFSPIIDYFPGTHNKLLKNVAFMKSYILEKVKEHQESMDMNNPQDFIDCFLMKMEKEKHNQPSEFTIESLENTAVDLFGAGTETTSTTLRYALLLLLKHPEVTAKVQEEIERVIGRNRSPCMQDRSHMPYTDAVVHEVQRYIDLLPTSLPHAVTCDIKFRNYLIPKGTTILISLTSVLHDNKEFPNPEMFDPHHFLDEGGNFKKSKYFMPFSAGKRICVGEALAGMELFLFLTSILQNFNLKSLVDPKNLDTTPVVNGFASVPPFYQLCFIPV
Protocol: as §1

## O=C([O-])c1ccc(/C=C/S(=O)(=O)Cc2ccc(Cl)cc2)cc1.[Na+] [ON 01210.Na, E-4-Carboxystyryl-4-chlorobenzylsulfone sodium salt]
[1]; 2-20 μM for 24 hours prior to 10 Gy IR, dose-dependent
  fold protection (surviving colonies): 3.3-4.7 fold
[1]; ON 01210.Na treated group after IR
  number of cells per colony: significant larger
[1]; human lung fibroblasts
  protection from radiation exposure (clonogenic survival): protected
[1]; treated four hours post irradiation exposure, 24 h
  protection when cells treated post irradiation: significant protection
Human bone marrow cells
  range of concentrations that protected cells: 10 fold
Human bone marrow cells; 3 hours treatment
  optimal concentration for radiation protection: 10 µM
Human bone marrow cells; 3 hours treatment before irradiation, sodium salt
  radiation protection of human bone marrow cells: protect human bone marrow cells in a dose dependent manner; also recorded: protected human bone marrow cells in a dose responsive manner; also recorded: very effective; also recorded: reproducibly protect
Human bone marrow cells; ON 01210.Na 10 μM (optimal), 3 hours before irradiation
  dose reduction factor (DRF): 1.6
White blood cells; 500 mg/kg sc -24 h and -15 min before 5.5 Gy IR, sodium salt
  protection of white blood cells from radiation exposure: significantly protected
White blood cells; by 18 days
  recovery of white cell numbers: more rapid recovery
[2]; 50 mg/kg to 500 mg/kg, p<0.05 vs. vehicle
  protection against radiation lethality: dose-dependent protection
[2]; 500 mg/kg pretreatment
  protection from LD50/30 whole body radiation dose: completely and reproducibly protected
[2]; double injection, minus 24 hour and minus 15 minutes, prior to lethal ionizing radiation
  mice protected (survival): 100%
[2]; same dosing regimen, solution formulation vs suspension
  efficacy of solution formulation: similarly effective
[2]; single injection at minus 15 minutes prior to lethal ionizing radiation
  mice protected (survival): 100%
Human skin fibroblasts
  protection from radiation exposure (clonogenic survival): protected
[3]
  activity as a free radical scavenger or antioxidant: did not exhibit any significant activity
cells
  cell cycle arrest: did not cause cell cycle arrest
  cytotoxicity: not cytotoxic
[4]
  inhibition or stimulation of receptor binding: No significant inhibition or stimulation
CYP450 2C9
  CYP450 2C9 activity, stimulation: 98%
